Columns and labels:
EGFR = EGFR (Homo sapiens (Human), UniProt P00533); assay: EGFR kinase inhibition, phosphotyrosine ELISA cytoblot; assay type: cell-based; details: A431 cells
Experimental: Cells used were tumor cell lines naturally expressing high levels of EGFR (A431), VEGFR-2 (U251), and PDGFR-β (SH-SYSY). […] The reaction was stopped and cells were permeabilized by quickly removing the media from the cells and adding ice-cold Tris-buffered saline (TBS) containing 0.05% Triton X-100, protease inhibitor cocktail and tyrosine phosphatase inhibitor cocktail. The TBS solution was then removed and cells fixed to the plate for 30 min at 60° C. and further incubation in 70% ethanol for an additional 30 min. Cells were further exposed to block (TBS with 1% BSA) for 1 h, washed, and then a horseradish peroxidase (HRP)-conjugated phosphotyrosine (PY) antibody was added overnight.

A431 cancer cells = assay: A431 cytotoxicity (cell proliferation); assay type: cell-based, human; details: Homo sapiens, A-431
[1] = test system: cellular microtubules in A-10 cells; assay: Microtubule depolymerization, indirect immunofluorescence; assay type: cell-based; details: for effect on cellular microtubules: in words
Experimental: Evaluation of microtubule inhibition was performed using previously described methods.^22 Indirect immunofluorescence was used to evaluate the effects of the compounds on cellular microtubules as described previously.^38 Briefly, A-10 cells were treated for 18 h with vehicle (DMSO) or a compound, and microtubule effects were evaluated microscopically using β-tubulin antibody. The EC50 was calculated from 3 independent experiments and expressed as the mean±SD.

MDA-435 cells = assay: Antiproliferative SRB assay; assay type: cell-based; details: MDA435, 48 h, read-out: IC50 ± SD in MDA-435 cells
HeLa cells = assay: Antiproliferative SRB assay; assay type: cell-based; details: Homo sapiens, HeLa, 48 h, read-out: IC50 ± SD in HeLa
[2] = test system: WTβ3 cells (HeLa overexpressing βIII tubulin); assay: Antiproliferative SRB assay; assay type: cell-based; details: for IC50: Homo sapiens, HeLa, SRB, 48 h, read-out: IC50 ± SD in WTβ3
SKOV3 cells = assay: Antiproliferative SRB assay; assay type: cell-based; details: Homo sapiens, SK-OV-3, 48 h, read-out: IC50 ± SD in SKOV3 cells
EKVX = assay: NCI 60 cell line panel; assay type: cell-based; details: Homo sapiens, NSCLC
HOP-62 = assay: NCI 60 cell line panel; assay type: cell-based; details: Homo sapiens, NSCLC
HOP-92 = assay: NCI 60 cell line panel; assay type: cell-based; details: Homo sapiens, NSCLC
NCI-H226 = assay: NCI 60 cell line panel; assay type: cell-based; details: Homo sapiens, NSCLC
NCI-H23 = assay: NCI 60 cell line panel; assay type: cell-based; details: Homo sapiens, NSCLC
NCI-H460 = assay: NCI 60 cell line panel; assay type: cell-based; details: Homo sapiens, NSCLC
NCI-H522 = assay: NCI 60 cell line panel; assay type: cell-based; details: Homo sapiens, NSCLC
SF-268 = assay: NCI 60 cell line panel; assay type: cell-based; details: Homo sapiens, CNS Cancer
SF-295 = assay: NCI 60 cell line panel; assay type: cell-based; details: Homo sapiens, CNS Cancer
SF-539 = assay: NCI 60 cell line panel; assay type: cell-based; details: Homo sapiens, CNS Cancer
SNB-19 = assay: NCI 60 cell line panel; assay type: cell-based; details: Homo sapiens, CNS Cancer
SNB-75 = assay: NCI 60 cell line panel; assay type: cell-based; details: Homo sapiens, CNS Cancer
U251 = assay: NCI 60 cell line panel; assay type: cell-based; details: Homo sapiens, U-251, CNS Cancer
IGROV1 = assay: NCI 60 cell line panel; assay type: cell-based; details: Homo sapiens, IGROV-1, Ovarian cancer
OVCAR-3 = assay: NCI 60 cell line panel; assay type: cell-based; details: Homo sapiens, Ovarian cancer
OVCAR-4 = assay: NCI 60 cell line panel; assay type: cell-based; details: Homo sapiens, Ovarian cancer
OVCAR-5 = assay: NCI 60 cell line panel; assay type: cell-based; details: Homo sapiens, Ovarian cancer
OVCAR-8 = assay: NCI 60 cell line panel; assay type: cell-based; details: Homo sapiens, Ovarian cancer
NCI/ADR-RES = assay: NCI 60 cell line panel; assay type: cell-based; details: Homo sapiens, Ovarian cancer
SK-OV-3 = assay: NCI 60 cell line panel; assay type: cell-based; details: Homo sapiens, Ovarian cancer
LOX IMVI = assay: NCI 60 cell line panel; assay type: cell-based; details: Homo sapiens, Melanoma
MDA-MB-435 = assay: NCI 60 cell line panel; assay type: cell-based; details: Homo sapiens, Melanoma
SK-MEL-2 = assay: NCI 60 cell line panel; assay type: cell-based; details: Homo sapiens
SK-MEL-5 = assay: NCI 60 cell line panel; assay type: cell-based; details: Homo sapiens, Melanoma
UACC-62 = assay: NCI 60 cell line panel; assay type: cell-based; details: Homo sapiens, Melanoma
CAKI-1 = assay: NCI 60 cell line panel; assay type: cell-based; details: Homo sapiens, Renal Cancer
TK-10 = assay: NCI 60 cell line panel; assay type: cell-based; details: Homo sapiens, Renal Cancer
UO-31 = assay: NCI 60 cell line panel; assay type: cell-based; details: Homo sapiens, Renal Cancer
COLO 205 = assay: NCI 60 cell line panel; assay type: cell-based; details: Homo sapiens, Colon Cancer
HCC-2998 = assay: NCI 60 cell line panel; assay type: cell-based; details: Homo sapiens, Colon Cancer
HCT-116 = assay: NCI 60 cell line panel; assay type: cell-based; details: Homo sapiens, Colon Cancer
HCT-15 = assay: NCI 60 cell line panel; assay type: cell-based; details: Homo sapiens, Colon Cancer
HT29 = assay: NCI 60 cell line panel; assay type: cell-based; details: Homo sapiens, HT-29, Colon Cancer
SW-620 = assay: NCI 60 cell line panel; assay type: cell-based; details: Homo sapiens, Colon Cancer
PC-3 = assay: NCI 60 cell line panel; assay type: cell-based; details: Homo sapiens, Prostate Cancer
DU-145 = assay: NCI 60 cell line panel; assay type: cell-based; details: Homo sapiens, Prostate Cancer
MDA-MB-231/ATCC = assay: NCI 60 cell line panel; assay type: cell-based; details: Homo sapiens, Breast Cancer
BT-549 = assay: NCI 60 cell line panel; assay type: cell-based; details: Homo sapiens
MDA-MB-468 = assay: NCI 60 cell line panel; assay type: cell-based; details: Homo sapiens, Breast Cancer
CCRF-CEM = assay: NCI 60 cell line panel; assay type: cell-based; details: Homo sapiens, Leukemia
HL-60(TB) = assay: NCI 60 cell line panel; assay type: cell-based; details: Homo sapiens, Leukemia
K-562 = assay: NCI 60 cell line panel; assay type: cell-based; details: Homo sapiens, K562, Leukemia
MOLT-4 = assay: NCI 60 cell line panel; assay type: cell-based; details: Homo sapiens, Leukemia

Chain of EGFR (P00533 25-1210): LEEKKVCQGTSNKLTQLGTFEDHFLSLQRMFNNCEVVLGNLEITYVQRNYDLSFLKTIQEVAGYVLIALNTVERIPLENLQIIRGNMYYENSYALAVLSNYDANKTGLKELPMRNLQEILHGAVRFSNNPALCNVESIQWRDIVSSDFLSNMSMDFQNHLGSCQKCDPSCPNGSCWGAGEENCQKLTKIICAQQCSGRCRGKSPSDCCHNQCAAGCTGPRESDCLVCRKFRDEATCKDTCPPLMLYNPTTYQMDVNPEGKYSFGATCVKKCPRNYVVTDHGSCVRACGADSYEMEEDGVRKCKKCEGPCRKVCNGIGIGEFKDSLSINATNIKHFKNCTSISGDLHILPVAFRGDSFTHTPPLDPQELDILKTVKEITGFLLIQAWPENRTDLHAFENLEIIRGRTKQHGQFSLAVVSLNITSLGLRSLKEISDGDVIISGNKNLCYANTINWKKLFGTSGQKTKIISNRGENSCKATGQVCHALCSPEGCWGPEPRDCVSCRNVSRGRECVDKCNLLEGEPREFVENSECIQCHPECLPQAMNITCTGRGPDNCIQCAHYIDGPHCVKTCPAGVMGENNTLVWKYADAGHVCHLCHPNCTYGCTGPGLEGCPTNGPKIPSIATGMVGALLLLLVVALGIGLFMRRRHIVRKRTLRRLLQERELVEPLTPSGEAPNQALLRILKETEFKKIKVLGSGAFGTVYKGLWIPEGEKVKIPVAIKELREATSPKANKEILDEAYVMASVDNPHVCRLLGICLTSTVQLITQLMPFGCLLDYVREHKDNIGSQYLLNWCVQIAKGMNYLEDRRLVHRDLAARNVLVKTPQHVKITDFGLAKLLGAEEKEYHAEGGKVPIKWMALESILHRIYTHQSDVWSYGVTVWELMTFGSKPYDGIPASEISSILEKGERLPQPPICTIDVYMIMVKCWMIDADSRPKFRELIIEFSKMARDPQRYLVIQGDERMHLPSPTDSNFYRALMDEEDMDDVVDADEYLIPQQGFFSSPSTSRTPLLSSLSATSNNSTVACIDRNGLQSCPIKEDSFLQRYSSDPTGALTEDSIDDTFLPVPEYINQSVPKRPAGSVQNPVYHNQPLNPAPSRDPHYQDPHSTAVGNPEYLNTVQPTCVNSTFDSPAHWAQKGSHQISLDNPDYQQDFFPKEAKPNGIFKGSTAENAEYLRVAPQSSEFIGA

Cc1nc(N(C)c2ccc3occc3c2)c2cc(C)oc2n1 [Compound 7, N-1-benzofuran-5-yl-N,2,6-trimethylfuro[2,3-d]pyrimidin-4-amine]
IC50 (EGFR): 307 ± 42.1 nM
IC50 (A431 cancer cells): 73.2 ± 10.1 nM
EC50/IC50 ratio ([1]; EC50 MT depolymerization / IC50 MDA-435): 28
effect on cellular microtubules [1]: dose-dependent loss of cellular microtubules
IC50 (MDA-435 cells): 133 ± 1.7 nM
IC50 (HeLa cells): 302 ± 23.4 nM
IC50 [2]: 243 ± 15.1 nM
Rr value (relative resistance) ([2]; WTβ3 vs HeLa): 0.8
IC50 (SKOV3 cells): 425 ± 53.1 nM
GI50 (EKVX): 396 nM
GI50 (HOP-62): 75.2 nM
GI50 (HOP-92): 226 nM
GI50 (NCI-H226): 217 nM
GI50 (NCI-H23): 206 nM
GI50 (NCI-H460): 138 nM
GI50 (NCI-H522): 29.9 nM
GI50 (SF-268): 527 nM
GI50 (SF-295): 41.7 nM
GI50 (SF-539): 60.9 nM
GI50 (SNB-19): 93.6 nM
GI50 (SNB-75): 103 nM
GI50 (U251): 84 nM
GI50 (IGROV1): 142 nM
GI50 (OVCAR-3): 30 nM
GI50 (OVCAR-4): 553 nM
GI50 (OVCAR-5): 531 nM
GI50 (OVCAR-8): 330 nM
GI50 (NCI/ADR-RES): 37.6 nM
GI50 (SK-OV-3): 98 nM
GI50 (LOX IMVI): 162 nM
GI50 (MDA-MB-435): 21.1 nM
GI50 (SK-MEL-2): 82.4 nM
GI50 (SK-MEL-5): 50.4 nM
GI50 (UACC-62): 57.1 nM
GI50 (CAKI-1): 57.9 nM
GI50 (TK-10): 382 nM
GI50 (UO-31): 278 nM
GI50 (COLO 205): 139 nM
GI50 (HCC-2998): 185 nM
GI50 (HCT-116): 77.1 nM
GI50 (HCT-15): 51.9 nM
GI50 (HT29): 51.9 nM
GI50 (SW-620): 58.8 nM
GI50 (PC-3): 183 nM
GI50 (DU-145): 198 nM
GI50 (MDA-MB-231/ATCC): 223 nM
GI50 (BT-549): 432 nM
GI50 (MDA-MB-468): 31.5 nM
GI50 (CCRF-CEM): 121 nM
GI50 (HL-60(TB)): 41.2 nM
GI50 (K-562): 40.4 nM
GI50 (MOLT-4): 211 nM

COc1ccc2c(c1)CCCN2c1nc(C)nc2oc(C)cc12 [Compound 10, 4-(6-methoxy-3,4-dihydroquinolin-1(2H)-yl)-2,6-dimethylfuro[2,3-d]pyrimidine]
IC50 (EGFR): 3.4 ± 0.8 nM
IC50 (A431 cancer cells): 18 ± 2.9 nM
EC50 ([1]; A-10 cells, 18 h, read-out: EC50 for MT depolymerization in A-10 cells): 21 nM
effect on cellular microtubules [1]: dose-dependent loss of cellular microtubules
IC50 (MDA-435 cells): 9.8 ± 0.9 nM
IC50 (HeLa cells): 13.5 ± 0.5 nM
IC50 [2]: 9.1 ± 1.8 nM
IC50 (SKOV3 cells): 12.9 ± 1.2 nM
GI50 (EKVX): < 10 nM
GI50 (HOP-62): < 10 nM
GI50 (HOP-92): 58.6 nM
GI50 (NCI-H226): 13 nM
GI50 (NCI-H23): < 10 nM
GI50 (NCI-H460): < 10 nM
GI50 (NCI-H522): < 10 nM
GI50 (SF-268): 16.8 nM
GI50 (SF-295): < 10 nM
GI50 (SF-539): < 10 nM
GI50 (SNB-19): < 10 nM
GI50 (SNB-75): < 10 nM
GI50 (U251): < 10 nM
GI50 (IGROV1): < 10 nM
GI50 (OVCAR-3): < 10 nM
GI50 (OVCAR-4): 51 nM
GI50 (OVCAR-5): 43 nM
GI50 (OVCAR-8): < 10 nM
GI50 (NCI/ADR-RES): < 10 nM
GI50 (SK-OV-3): < 10 nM
GI50 (LOX IMVI): < 10 nM
GI50 (MDA-MB-435): < 10 nM
GI50 (SK-MEL-2): < 10 nM
GI50 (SK-MEL-5): < 10 nM
GI50 (UACC-62): < 10 nM
GI50 (CAKI-1): < 10 nM
GI50 (TK-10): < 10 nM
GI50 (UO-31): < 10 nM
GI50 (COLO 205): < 10 nM
GI50 (HCC-2998): 12 nM
GI50 (HCT-116): < 10 nM
GI50 (HCT-15): < 10 nM
GI50 (HT29): < 10 nM
GI50 (SW-620): < 10 nM
GI50 (PC-3): < 10 nM
GI50 (DU-145): < 10 nM
GI50 (MDA-MB-231/ATCC): 11.4 nM
GI50 (BT-549): < 10 nM
GI50 (MDA-MB-468): < 10 nM
GI50 (CCRF-CEM): < 10 nM
GI50 (HL-60(TB)): < 10 nM
GI50 (K-562): < 10 nM
GI50 (MOLT-4): 15 nM

— patent publication US10189853B2, “Conformationally restricted 4-substituted-2,6-dimethylfuro[2,3-d]pyrimidines as anti-tumor agents” (DUQUESNE UNIVERSITY OF THE HOLY SPIRIT, priority 2014, dated 2019)
